Reference: ChEMBL document CHEMBL1201862, “PubChem BioAssay data set” (2004)
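Growth conditions: 96-well plates. Treatment: test compound, 48 hours, 5 concentrations. Analysis: linear interpolation between bracketing concentrations; unreached endpoints set to highest concentration. Abbreviation: GI50, concentration required for 50% inhibition of growth.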 Active and inactive are the calls of the source. No stated cut-off is given here; in the data, active = GI50 up to about 1.1 µM and inactive = higher.

What was measured:
Experiment in all cases: NCI-60 cell line screen, 48 h
DLD-1 = system: DLD-1
DMS-273 = system: DMS-273
HOP-18 = system: HOP-18
LXFL 529 = system: LXFL 529
M19-MEL = system: M19-MEL
SNB-78 = system: SNB-78
KM-20L2 = system: KM-20L2
RXF 631 = system: RXF 631
XF498 = system: XF498

SMILES	GI50 (DLD-1)	GI50 (DMS-273)	GI50 (HOP-18)	GI50 (LXFL 529)	GI50 (M19-MEL)	GI50 (SNB-78)	GI50 (KM-20L2)	GI50 (RXF 631)	GI50 (XF498)
CCCN(CCC)CCc1cc(C(C)=O)n(S(=O)(=O)c2ccc(C)cc2)c1	> 100 µM (inactive)	> 100 µM (inactive)	> 100 µM (inactive)	> 100 µM (inactive)	> 100 µM (inactive)	> 100 µM (inactive)			
O=C(Nc1ccc(Cl)cc1Cl)C(=O)C(C(=O)c1ccncc1)C1OC(=O)c2ccccc21 (centres undefined)	> 100 µM (inactive)		> 100 µM (inactive)	> 100 µM (inactive)	> 100 µM (inactive)	> 100 µM (inactive)	> 100 µM (inactive)	> 100 µM (inactive)	> 100 µM (inactive)
COC(=O)/C(Cl)=C1/CC1COCc1ccccc1 (centres undefined)	20.4 µM (inactive)	20.7 µM (inactive)		17.1 µM (inactive)	33.3 µM (inactive)	45.9 µM (inactive)	41.4 µM (inactive)		26.4 µM (inactive)
CCC12CCCC(=O)N1C(CO)C(c1ccccc1)O2 (centres undefined)	> 100 µM (inactive)	> 100 µM (inactive)	> 100 µM (inactive)		> 100 µM (inactive)	> 100 µM (inactive)	> 100 µM (inactive)		> 100 µM (inactive)
O=S1(=O)NN=C(NCc2ccc(Cl)c(Cl)c2)c2ccccc21	56.9 µM (inactive)	> 100 µM (inactive)	> 100 µM (inactive)	42.2 µM (inactive)	> 100 µM (inactive)	97.5 µM (inactive)	> 100 µM (inactive)		
N#CC(NNC(=O)Cc1ccccc1)c1cccc(O)c1 (centres undefined)	> 100 µM (inactive)	> 100 µM (inactive)	> 100 µM (inactive)	> 100 µM (inactive)	> 100 µM (inactive)	> 100 µM (inactive)			
CCCCCCC(=O)OC[n+]1ccc2c(C)c3[nH]c4ccc(OC)cc4c3c(C)c2c1	0.092 µM (active)	0.029 µM (active)		0.133 µM (active)	0.953 µM (active)	1.06 µM (active)	2.42 µM (inactive)	0.455 µM (active)	
CCCCCCCCCCCCN(O)C(=O)c1ccccc1	26.4 µM (inactive)		62.1 µM (inactive)	30.5 µM (inactive)	37.8 µM (inactive)		36.2 µM (inactive)		21.6 µM (inactive)
CC(=O)Nc1ccc(C2CC(c3ccc([N+](=O)[O-])cc3)=Nc3ccccc3[S+]2[O-])cc1 (centres undefined)	15.9 µM (inactive)	13.6 µM (inactive)	27.2 µM (inactive)	16.7 µM (inactive)	15.2 µM (inactive)		21.6 µM (inactive)	> 10 µM (inactive)	24.2 µM (inactive)
CC1=NN(c2ccccc2)C(=O)C1=C1SCCCS1	21.5 µM (inactive)	32.7 µM (inactive)	20.8 µM (inactive)	34.6 µM (inactive)	32.1 µM (inactive)	66.2 µM (inactive)	31.4 µM (inactive)		16.6 µM (inactive)
COc1ccccc1/N=C(\N)N/N=C/c1c[nH]c2ccccc12	13.8 µM (inactive)		18.6 µM (inactive)	2.23 µM (inactive)	11.1 µM (inactive)	6.85 µM (inactive)	13.3 µM (inactive)		4.42 µM (inactive)
Cc1c2cc[n+]([O-])cc2c(C)c2c1[nH]c1ccccc12	5.42 µM (inactive)	3.82 µM (inactive)	45 µM (inactive)	4.65 µM (inactive)	13.6 µM (inactive)	7.71 µM (inactive)	4.06 µM (inactive)	0.879 µM (active)	9.98 µM (inactive)
CCOc1ccc2c(c1)[n+]([O-])c(-c1ccccc1)c(N)[n+]2[O-]	> 100 µM (inactive)	77.1 µM (inactive)	53.6 µM (inactive)	46.6 µM (inactive)	62.4 µM (inactive)		59 µM (inactive)		> 100 µM (inactive)
COc1c(C(C)C)cc2c3c1OC(=O)[C@@]31CCCC(C)(C)C1CC2 (some centres undefined)	69.8 µM (inactive)	23.4 µM (inactive)		16.6 µM (inactive)	23.6 µM (inactive)	23.3 µM (inactive)	30.4 µM (inactive)		
C[C@]12CCC3[C@@H](CCC45OC4C(=O)CC[C@]35C)C1Cc1cnn(-c3ccc(F)cc3)c1N2 (some centres undefined)		18.8 µM (inactive)	37 µM (inactive)	32.8 µM (inactive)	34.3 µM (inactive)	25.6 µM (inactive)	22.6 µM (inactive)		31.8 µM (inactive)
CC(C)(C)c1cc2ccc(C(N)=O)cc2c(=O)[nH]1	> 100 µM (inactive)	> 100 µM (inactive)	> 100 µM (inactive)	> 100 µM (inactive)	> 100 µM (inactive)	> 100 µM (inactive)	> 100 µM (inactive)	> 100 µM (inactive)	
Nc1ccc(C(=O)NN2C(=O)C(Cl)C2c2cccc([N+](=O)[O-])c2)cc1 (centres undefined)	17.9 µM (inactive)	16 µM (inactive)		20 µM (inactive)	19.8 µM (inactive)	63.2 µM (inactive)	25.3 µM (inactive)		13.2 µM (inactive)
COc1ccc(S(=O)(=O)NC(C)C(=O)O)cc1 (centres undefined)	> 100 µM (inactive)	> 100 µM (inactive)	> 100 µM (inactive)	> 100 µM (inactive)	> 100 µM (inactive)		> 100 µM (inactive)		21.9 µM (inactive)
COc1cccc2c1C(=O)c1c(O)c3c(c(O)c1C2=O)C[C@@](O)(C(=O)CO)C[C@@H]3OC1CC(N2CCOCC2C#N)C(O)C(C)O1 (some centres undefined)	2.26e-05 µM (active)	1.93e-05 µM (active)	0.0025 µM (active)	0.001 µM (active)		0.0025 µM (active)	0.0025 µM (active)	8.24e-05 µM (active)	
OCC1OC(n2cnc3c2NC=NC[C@H]3O)CC1O (some centres undefined)	494 µM (inactive)	489 µM (inactive)		> 500 µM (inactive)	354 µM (inactive)	483 µM (inactive)	> 500 µM (inactive)		442 µM (inactive)
O=c1c2cccc3cccc(c4n1CCN=4)c32	52.5 µM (inactive)	97.7 µM (inactive)	> 100 µM (inactive)	> 100 µM (inactive)	> 100 µM (inactive)	> 100 µM (inactive)	> 100 µM (inactive)		> 100 µM (inactive)
Clc1ccc(C2=NN(c3ccccc3)C3c4cc(Br)ccc4OCC23)cc1 (centres undefined)	> 100 µM (inactive)	> 100 µM (inactive)	> 100 µM (inactive)	72.1 µM (inactive)	> 100 µM (inactive)	> 100 µM (inactive)	> 100 µM (inactive)	> 100 µM (inactive)	66.2 µM (inactive)
